# Test results reported in US11192891B2, “Diazaspiro ROCK inhibitors” (BRISTOL-MYERS SQUIBB COMPANY, priority 2017, dated 2021).
# Test system: rat models of hypertension
# Experiment: not given
# Conditions: control rats; cited from earlier work
row,Compound,effect on blood pressure in control rats
1,C[C@@H](N)[C@H]1CC[C@H](C(=O)Nc2ccncc2)CC1 [Example Y-27632],only a minor effect on blood pressure

# Same assay, conditions: spontaneously hypertensive, renal hypertensive and deoxycortisone acetate salt hypertensive rat models; cited from earlier work
row,Compound,effect on blood pressure in hypertensive rats
1,C[C@@H](N)[C@H]1CC[C@H](C(=O)Nc2ccncc2)CC1 [Example Y-27632],significantly decrease blood pressure

# Test system: rat stroke model
# Experiment: not given
# Conditions: cited from earlier work
row,Compound,infarct size and neurologic deficit
1,O=S(=O)(c1cccc2cnccc12)N1CCCNCC1 [fasudil],reduce both the infarct size and neurologic deficit

# Test system: IL-1 beta-induced coronary stenosis
# Experiment: not given
# Conditions: long term treatment, porcine model; cited from earlier work
Compound,coronary constrictive remodeling,coronary stenosis
O=S(=O)(c1cccc2cnccc12)N1CCCNCC1 [fasudil],promote a regression of coronary constrictive remodeling,progressively reduce coronary stenosis

# Target: ROCK2 (Homo sapiens, UniProt O75116)
# Sequence (O75116 whole entry, species assumed): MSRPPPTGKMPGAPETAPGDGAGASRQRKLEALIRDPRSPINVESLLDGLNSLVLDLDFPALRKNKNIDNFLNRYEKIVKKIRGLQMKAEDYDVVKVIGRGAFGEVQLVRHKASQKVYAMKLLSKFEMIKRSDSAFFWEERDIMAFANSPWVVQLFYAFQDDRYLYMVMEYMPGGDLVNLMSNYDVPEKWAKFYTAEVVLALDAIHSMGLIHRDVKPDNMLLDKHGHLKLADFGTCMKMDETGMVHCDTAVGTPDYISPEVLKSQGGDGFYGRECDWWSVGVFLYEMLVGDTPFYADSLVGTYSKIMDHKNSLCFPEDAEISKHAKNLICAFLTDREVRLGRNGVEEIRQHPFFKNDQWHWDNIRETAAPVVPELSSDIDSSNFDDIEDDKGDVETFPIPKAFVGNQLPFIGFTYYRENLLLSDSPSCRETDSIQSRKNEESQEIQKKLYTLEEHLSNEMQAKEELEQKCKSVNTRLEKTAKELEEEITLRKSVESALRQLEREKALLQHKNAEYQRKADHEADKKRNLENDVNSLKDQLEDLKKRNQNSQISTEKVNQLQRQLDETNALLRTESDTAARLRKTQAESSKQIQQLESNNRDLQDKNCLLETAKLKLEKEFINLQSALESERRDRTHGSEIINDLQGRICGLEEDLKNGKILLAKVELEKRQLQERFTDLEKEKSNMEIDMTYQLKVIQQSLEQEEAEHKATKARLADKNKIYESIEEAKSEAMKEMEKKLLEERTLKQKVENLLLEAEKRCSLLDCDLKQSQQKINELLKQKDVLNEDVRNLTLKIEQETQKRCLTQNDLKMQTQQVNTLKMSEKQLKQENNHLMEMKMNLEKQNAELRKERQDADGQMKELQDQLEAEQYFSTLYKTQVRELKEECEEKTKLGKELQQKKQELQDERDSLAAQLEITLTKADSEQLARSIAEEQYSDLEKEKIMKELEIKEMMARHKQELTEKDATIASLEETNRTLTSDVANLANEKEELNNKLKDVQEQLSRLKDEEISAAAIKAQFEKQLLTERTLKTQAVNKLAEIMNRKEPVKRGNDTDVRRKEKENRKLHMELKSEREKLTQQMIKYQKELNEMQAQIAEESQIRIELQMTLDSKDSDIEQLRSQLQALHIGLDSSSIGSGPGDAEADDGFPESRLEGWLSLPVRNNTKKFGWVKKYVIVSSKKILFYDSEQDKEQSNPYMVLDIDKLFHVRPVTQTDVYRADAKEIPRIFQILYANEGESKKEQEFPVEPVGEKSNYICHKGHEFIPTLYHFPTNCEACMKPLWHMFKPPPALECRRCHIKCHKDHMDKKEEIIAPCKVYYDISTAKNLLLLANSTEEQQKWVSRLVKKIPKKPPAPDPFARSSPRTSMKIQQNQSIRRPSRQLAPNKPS
# Experiment: ROCK kinase inhibition assay, FITC peptide substrate, LABCHIP 3000 readout
# Format: biochemical
# Conditions: 5 μM ATP, 1.5 μM peptide substrate
# Procedure, shortened: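 Tested across a concentration range, with percent inhibition of kinase activity derived per concentration. Peptide phosphorylation, initiated by adding the Rho kinase variant (final DMSO <2%), was quenched with EDTA and substrate/product resolved by mobility shift.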
row,IC50 [nM],Compound
1,6,"COc1cc(N2CCC3(CCN(C(=O)c4cc5n(n4)CCNC5=O)CC3)C2=O)ccc1-c1cn[nH]c1 [Example 114, 2-[3-methoxy-4-(1H-pyrazol-4-yl)phenyl]-8-{4-oxo-4H,5H,6H,7H-pyrazolo[1,5-a]pyrazine-2-carbonyl}-2,8-diazaspiro[4.5]decan-1-one]"
2,326,"COc1cc(N2CCC3(CCN(C(=O)c4cccc5ccncc45)CC3)C2=O)ccc1-c1cn[nH]c1 [Example 203, 8-(isoquinoline-8-carbonyl)-2-[3-methoxy-4-(1H-pyrazol-4-yl)phenyl]-2,8-diazaspiro[4.5]decan-1-one]"
3,2,"COc1cc(N2CCC3(CCN(C(=O)c4ccc(N5CCOCC5)cc4)CC3)C2=O)ccc1-c1cn[nH]c1 [Example 94, 2-[3-methoxy-4-(1H-pyrazol-4-yl)phenyl]-8-[4-(morpholin-4-yl)benzoyl]-2,8-diazaspiro[4.5]decan-1-one]"
4,444,"COc1cccc(C(=O)N2CCC3(CCN(c4ccc(-c5cn[nH]c5)cc4)C3=O)C2)c1 (stereo not shown) [Example 44, 7-(3-methoxybenzoyl)-2-[4-(1H-pyrazol-4-yl)phenyl]-2,7-diazaspiro[4.4]nonan-1-one]"
5,266,"COc1cccc(S(=O)(=O)N2CCC3(CCN(c4ccc(-c5cn[nH]c5)c(OC)c4)C3=O)CC2)c1 [Example 207, 2-[3-methoxy-4-(1H-pyrazol-4-yl)phenyl]-8-(3-methoxybenzenesulfonyl)-2,8-diazaspiro[4.5]decan-1-one]"
6,306,"COc1ccc(C(=O)N2CCC3(CC2)CC(=O)N(c2ccc(-c4cn[nH]c4)c(OC)c2)C3)cc1 [Example 47, 2-[3-methoxy-4-(1H-pyrazol-4-yl)phenyl]-8-(4-methoxybenzoyl)-2,8-diazaspiro[4.5]decan-3-one]"
7,37,"COc1cc(N2CCC3(CCN(C(=O)c4ccc(-c5nc(C)no5)cc4)CC3)C2=O)ccc1-c1cn[nH]c1 [Example 185, 2-[3-methoxy-4-(1H-pyrazol-4-yl)phenyl]-8-[4-(3-methyl-1,2,4-oxadiazol-5-yl)benzoyl]-2,8-diazaspiro[4.5]decan-1-one]"
8,2170,"COc1cc(N2CCC3(CCN(C(=O)C4CCC(C(N)=O)CC4)CC3)C2=O)ccc1-c1cn[nH]c1 (stereo not shown) [Example 148, 4-{2-[3-methoxy-4-(H-pyrazol-4-yl)phenyl]-1-oxo-2,8-diazaspiro[4.5]decane-8-carbonyl}cyclohexane-1-carboxamide]"
9,0.9,"COc1cc(N2CCC3(CCN(C(=O)c4ccc(N5CCN(Cc6cccn6C)CC5)cc4)CC3)C2=O)ccc1-c1cn[nH]c1 [Example 228, 2-[3-methoxy-4-(1H-pyrazol-4-yl)phenyl]-8-(4-{4-[(1-methyl-1H-pyrrol-2-yl)methyl]piperazin-1-yl}benzoyl)-2,8-diazaspiro[4.5]decan-1-one]"
10,12,"COc1cc(N2CCC3(CCN(C(=O)c4ccc(-n5cccc5)cc4)CC3)C2=O)ccc1-c1cn[nH]c1 [Example 193, 2-[3-methoxy-4-(1H-pyrazol-4-yl)phenyl]-8-[4-(1H-pyrrol-1-yl)benzoyl]-2,8-diazaspiro[4.5]decan-1-one]"
11,1100,"COc1cc(N2CCC3(CCN(C(=O)c4cc[n+]([O-])cc4)CC3)C2=O)ccc1-c1cn[nH]c1 [Example 96, 4-{2-[3-methoxy-4-(1H-pyrazol-4-yl)phenyl]-1-oxo-2,8-diazaspiro[4.5]decane-8-carbonyl}pyridin-1-ium-1-olate]"
12,3.7,"COc1cc(N2CCC3(CCN(C(=O)c4ccc(-c5ccc(S(C)(=O)=O)cc5)cc4)CC3)C2=O)ccc1-c1cn[nH]c1 [Example 173, 8-{4′-methanesulfonyl-[1,1′-biphenyl]-4-carbonyl}-2-[3-methoxy-4-(1H-pyrazol-4-yl)phenyl]-2,8-diazaspiro[4.5]decan-1-one]"
13,17,"COc1cc(N2CCC3(CCN(C(=O)c4ccc(CN5CCCC5)cc4)CC3)C2=O)ccc1-c1cn[nH]c1 [Example 168, 2-[3-methoxy-4-(1H-pyrazol-4-yl)phenyl]-8-{4-[(pyrrolidin-1-yl)methyl]benzoyl}-2,8-diazaspiro[4.5]decan-1-one]"
14,33,"COc1cc(N2CCC3(CCN(C(=O)c4ccc5cnccc5c4)CC3)C2=O)ccc1-c1cn[nH]c1 [Example 166, 8-(isoquinoline-6-carbonyl)-2-[3-methoxy-4-(1H-pyrazol-4-yl)phenyl]-2,8-diazaspiro[4.5]decan-1-one]"
15,427,"COc1cc(N2CCC3(CCN(C(=O)c4ccno4)CC3)C2=O)ccc1-c1cn[nH]c1 [Example 97, 2-[3-methoxy-4-(1H-pyrazol-4-yl)phenyl]-8-(1,2-oxazole-5-carbonyl)-2,8-diazaspiro[4.5]decan-1-one]"
16,0.3,"COc1cc(N2CCC3(CCN(C(=O)c4ccc(N5CCN(Cc6ccc(-n7ccnc7)cc6)CC5)cc4)CC3)C2=O)ccc1-c1cn[nH]c1 [Example 220, 8-[4-(4-{[4-(1H-imidazol-1-yl)phenyl]methyl}piperazin-1-yl)benzoyl]-2-[3-methoxy-4-(1H-pyrazol-4-yl)phenyl]-2,8-diazaspiro[4.5]decan-1-one]"
17,35,"COc1cc(N2CCC3(CCN(C(=O)c4ccc(C(N)=O)cc4)CC3)C2=O)ccc1-c1cn[nH]c1 [Example 181, 4-{2-[3-methoxy-4-(1H-pyrazol-4-yl)phenyl]-1-oxo-2,8-diazaspiro[4.5]decane-8-carbonyl}benzamide]"
18,410,"COc1cc(N2CCC3(CCN(S(=O)(=O)c4ccc5[nH]c(=O)[nH]c(=O)c5c4)CC3)C2=O)ccc1-c1cn[nH]c1 [Example 209, 6-({2-[3-methoxy-4-(1H-pyrazol-4-yl)phenyl]-1-oxo-2,8-diazaspiro[4.5]decan-8-yl}sulfonyl)-1,2,3,4-tetrahydroquinazoline-2,4-dione]"
19,78,"COc1cc(N2CCC3(CCN(C(=O)c4ccc5c(c4)CC(=O)N5)CC3)C2=O)ccc1-c1cn[nH]c1 [Example 177, 2-[3-methoxy-4-(1H-pyrazol-4-yl)phenyl]-8-(2-oxo-2,3-dihydro-1H-indole-5-carbonyl)-2,8-diazaspiro[4.5]decan-1-one]"
20,12,"COc1cc(N2CCC3(CCN(C(=O)c4ccc(N5CC(=O)NC5=O)cc4)CC3)C2=O)ccc1-c1cn[nH]c1 [Example 147, 1-(4-{2-[3-methoxy-4-(1H-pyrazol-4-yl)phenyl]-1-oxo-2,8-diazaspiro[4.5]decane-8-carbonyl}phenyl)imidazolidine-2,4-dione]"
21,12,"CCc1ccc(C(=O)N2CCC3(CC2)CCN(c2ccc(-c4cn[nH]c4)c(OC)c2)C3=O)nc1 [Example 108, 8-(5-ethylpyridine-2-carbonyl)-2-[3-methoxy-4-(1H-pyrazol-4-yl)phenyl]-2,8-diazaspiro[4.5]decan-1-one]"

# Test system: neointimal formation
# Experiment: not given
# Conditions: rats; cited from earlier work
row,Compound,neointimal formation
1,C[C@@H](N)[C@H]1CC[C@H](C(=O)Nc2ccncc2)CC1 [Example Y-27632],inhibited neointimal formation

# Test system: Dahl salt-sensitive rats
# Experiment: not given
# Conditions: cited from earlier work
row,Compound,"ventricular hypertrophy, fibrosis and function"
1,C[C@@H](N)[C@H]1CC[C@H](C(=O)Nc2ccncc2)CC1 [Example Y-27632],"improve ventricular hypertrophy, fibrosis and function"
